Measured values: patent US9669038B1, “Heterocyclic compounds and uses thereof” (Globavir BioSciences, Inc., priority 2012, dated 2017)

Key:
[1] = system: HIF1α-inducible promoter activity; assay: luciferase-based hypoxia-inducible promoter activity assay, MDA-MB-231-HRE-Luc cell line; settings: MDA-MB-231-HRE-Luc cells, various concentrations
Procedure: Results from the luciferase-based promoter activity assay with MDA-MB-231-HRE-Luc cell line treated with OOP 1 at various concentration. Hypoxia was mimicked by O2 deprivation in a GasPak™ EZ Anaerobe Pouch System (BD). Error bars represent ±s.e.m. of experiments performed in triplicates. * P<0.05, ** P<0.01, t-test, relative to sample Vehicle Hypoxia.
An analysis of hypoxia-inducible promoter activity was performed using luciferase assays in a MDA-MB-231 cell line stably transfected with hRE-hCMV-Luc plasmid. Cell lines were treated with OOP compounds at various concentrations. Hypoxia was mimicked by O2 deprivation in a GasPak™ EZ Anaerobe Pouch System (BD). Error bars represent ±s.e.m. of experiments performed in triplicates.

[2] = MTT cytotoxicity assay in MCF7 cells; format: cell-based; settings: human, MCF7 breast cancer cells, 1 μM to 60 μM
Procedure: One potential issue that arises with the use of transcriptional inhibitors is their cytotoxicity. Therefore, careful assessment of the cytotoxicity is important to evaluate nonspecific, global effects on transcriptional machinery. Cytotoxicity experiments were performed in order to obtain the EC50 values of OOPS in an MCF7 breast cancer cell line.
The cells were treated with different concentrations of compound for 48 hours in serum free F-12K medium. The cells are plated into 96-well dishes (Greiner) at a density of 5,000-10,000 cells/well in 200 μl of the cell culture media prepared as recommended by the vendor (ATCC). The plates are then placed into the incubator (37° C., 5% CO2) until the desired confluence is reached (in ca. 24-72 hours). Next, the media in all wells is replaced with the solution of the OOPS compound (150 μl for 48 hour study, 200 μl for 72 hour study) in the appropriate cell culture medium. The plates are then incubated for 48 hours (37° C., 5% CO2). […] The resulting purple precipitate is then dissolved in DMSO (200 μl/well) and the absorption of the metabolite product (purple formazan) in each well is measured at 562 nm using microplate reader (BioTek Synergy II). The absorption values are plotted against the concentration of the compound and GI50 is determined.

[3] = system: MCF7 cells; assay: gene expression profiling with Affymetrix Human Gene ST 1.0 Arrays; format: cell-based; settings: 10 μM, hypoxia (GasPak EZ pouch), |fold-change|>2.0, P<0.005, set of 3328 transcripts
Procedure: (A) Agglomerative hierarchical clustering of expression changes of the 3328 transcripts induced or repressed 2-fold or more (one-way ANOVA, P<0.005) under hypoxia mimicked with GasPak EZ pouch and the four specified conditions: -, no treatment; 1, OOP 1 (10 iuM); 2, OOP 2 (10 μM), 4, OOP 4 (10 μM). Clustering was based on a Pearson centered correlation of intensity ratios for each treatment compared to hypoxic cells (controls) using average-linkage as a distance. Of this hypoxia-induced set, 148 were induced and 449 were inhibited by OOP 1, whereas 217 were induced and 371 inhibited by OOP 2 (|fold-change|>2.0, P<0.005). Treatment with control OOP 4 induced 91 and inhibited 82 transcripts (|fold-change|>2.0, P<0.005). (B) Clustering of expression changes of the 571 transcripts induced or repressed 4-fold or more (P<0.005) by hypoxia mimicked with GasPak EZ pouch under the designated treatment conditions. Clustering parameters were the same as in (A). All reported treatments are error-weighted averages from three experiments. […] Numbers inside the intersections represent hypoxia-induced transcripts affected by the treatments.
Target proteins p300 and CBP are pleiotropic multidomain coactivators, and their CH1 regions contain binding sites for multiple transcription factors. To determine nonspecific genome-wide effects of OOPS, in vitro gene expression profiling experiments were conducted with OOPS using Affymetrix Human Gene ST 1.0 Arrays containing oligonucleotide sequences representing 28,869 transcripts. In order to interrogate cellular genome for global effects, MCF7 cells were treated with OOPS.

[4] = system: VEGFA gene; assay: qRT-PCR of hypoxia-induced VEGFA transcription in A549 cells; format: cell-based; settings: hypoxia (GasPak EZ Anaerobe Pouch), real-time qRT-PCR
Procedure: (§1) Hypoxia was mimicked by O2 deprivation in a GasPak™ EZ Anaerobe Pouch System (BD). […] Error bars are ±s.e.m. of four independent experiments. *** P<0.001, t-test.
(§2) A549 cells, a non-small cell lung adenocarcinoma cell line, were used. It has been reported that A549 cell line produces robust upregulation of key HIF-inducible genes under hypoxia conditions. […] A549 cells were maintained in 2% serum followed by treating cells with compound or control in the media with 0.2% serum for 48 h.
(§3) mRNA levels of three HIF-1α inducible genes: VEGF, c-Met and […] in A549 cells after treatment with OOPS were measured. Data from qRT-PCR experiments showing mRNA levels of three HIF-1α inducible genes, VEGF, c-Met and LOX in A549 after treatment of the cells in a medium with OOPS is described in FIGS. 1-3. Hypoxia was mimicked by O2 deprivation in a GasPak™ EZ Anaerobe Pouch System (BD). Error bars are ±s.e.m for the experiments performed in quadruplicate. Error bars are ±s.e.m. of experiments performed in triplicate. *** P<0.001, ** P<0.01, t test.

[5] = system: c-Met gene; assay: qRT-PCR of hypoxia-induced c-Met transcription in A549 cells; format: cell-based; settings: hypoxia (GasPak EZ Anaerobe Pouch), real-time qRT-PCR
Procedure: as §1, §2, §3

[6] = system: LOX gene; assay: qRT-PCR of hypoxia-induced LOX transcription in A549 cells; format: cell-based; settings: hypoxia (GasPak EZ Anaerobe Pouch), real-time qRT-PCR
Procedure: as §1, §2, §3

[7] = system: HIF-1α; assay: Western blot of intracellular HIF-1α levels in A549 cells; format: cell-based; settings: A549 whole cell extract, 24 h incubation, hypoxia for last 18 h
Procedure: Western blot analysis of HIF-1α levels (A) with β-actin used as a control (B) in the whole cell extract of A549 cells. Cells were incubated for a total of 24 hours with OOP 2. After 6 h, hypoxia was mimicked by O2 deprivation in a GasPak™ EZ Anaerobe Pouch System (BD) for an additional 18 h.
(§4) The effect of OOPS on HIF-1α and c-met protein levels was studied. A549 cells were treated with OOPS. Cells were incubated for a total of 24 hours with OOP 2. After 6 h, hypoxia was mimicked by O2 deprivation in a GasPak™ EZ Anaerobe Pouch System (BD) for an additional 18 hours.

[8] = system: c-Met; assay: Western blot of intracellular c-Met levels in A549 cells; format: cell-based; settings: A549 whole cell extract, 24 h incubation, hypoxia for last 18 h
Procedure: Western blot analysis of c-Met levels (A) with β-actin used as a control (B) in the whole cell extract of A549 cells. Cells were incubated for a total of 24 hours with OOP 2. After 6 h, hypoxia was mimicked by O2 deprivation in a GasPak™ EZ Anaerobe Pouch System (BD) for an additional 18 h.
as §4

[9] = maximum tolerated dose (MTD) study; format: in vivo; settings: Balb/C mice, intraperitoneal injection every 48 hours, up to 100 mg/kg
Procedure: Balb/C mice were used in an MTD experiment. 1 mouse was present in the vehicle group and 3 mice in OOP 2-treated group. Food and water ad libitum was provided as needed and according to the protocol. OOP 2 was administered by Intraperitoneal (IP) injection. OOP 2 was dissolved in sterile PBS at a concentration range between […]. Volume administered was about 100-150 μl every 48 hours. No toxicity was seen even at 100 mg/kg of OOP 2, at which point the experiment was terminated.

SMILES: CC(C)C[C@@H]1NCCN([C@@H](CC(C)C)C(=O)N2CCN([C@@H](C)C(N)=O)C(=O)[C@@H]2C)C1=O [OOP 1]
- HIF1α-inducible promoter activity (luciferase) [1]: reduces HIF1α-inducible promoter activity in vitro in a dose-dependent manner
- EC50 at 48 h [2]: 30 µM
- number of transcripts induced, of the hypoxia-induced set [3]: 148
- number of transcripts inhibited, of the hypoxia-induced set [3]: 449

SMILES: CC(C)C[C@@H]1NCCN([C@@H](CC(C)C)C(=O)N2CCN([C@@H](CCC(N)=O)C(N)=O)C(=O)[C@@H]2C)C1=O [OOP 2]
- expression levels of VEGFA gene (mRNA) [4]: reduced expression levels of VEGFA gene
- expression levels of c-Met gene (mRNA) [5]: reduced expression levels of c-Met gene
- expression levels of LOX gene (mRNA) [6]: reduced expression levels of LOX gene
- HIF1α-inducible promoter activity (luciferase) [1]: reduces HIF1α-inducible promoter activity in vitro in a dose-dependent manner
- intracellular levels of HIF-1α (Western blot) [7]: does not decrease the intracellular levels of HIF-1α
- intracellular levels of c-Met (Western blot) [8]: decreases intracellular levels of c-Met
- EC50 at 48 h [2]: 30 µM
- number of transcripts induced, of the hypoxia-induced set [3]: 217
- number of transcripts inhibited, of the hypoxia-induced set [3]: 371
- toxicity in MTD study [9]: No toxicity

SMILES: CC(C)C[C@H](N)C(=O)N1CCN([C@@H](C)C(=O)N2CCN([C@@H](C)C(N)=O)C(=O)[C@@H]2CC(C)C)C(=O)[C@@H]1CCCNC(=N)N [OOP 3]
- HIF1α-inducible promoter activity (luciferase) [1]: reduces HIF1α-inducible promoter activity in vitro in a dose-dependent manner

SMILES: C[C@@H]1NCCN([C@@H](C)C(=O)N2CCN([C@@H](C)C(N)=O)C(=O)[C@@H]2C)C1=O [OOP 4]
- expression levels of VEGFA gene (mRNA) [4]: no inhibitory activity
- expression levels of c-Met gene (mRNA) [5]: no inhibitory activity
- expression levels of LOX gene (mRNA) [6]: no inhibitory activity
- HIF1α-inducible promoter activity (luciferase) [1]: does not affect HIF1α-inducible promoter activity
- number of transcripts induced, of the hypoxia-induced set [3]: 91
- number of transcripts inhibited, of the hypoxia-induced set [3]: 82
